Values quoted from earlier work, collected in patent US20030130231A1, “2:1 Complex of beta- or gamma-cyclodextrin and alpha-tocopherol” (WACKER-CHEMIE GmbH, priority 2002, published 2003).
Read-outs that look alike come from different tables or passages of the source.

Tests used:
[1] = cited from earlier work
[2] = cited from earlier work; remark: listed apart in the source

Cc1c(C)c2c(c(C)c1O)CC[C@@](C)(CCC[C@H](C)CCC[C@H](C)CCCC(C)C)O2 [α-tocopherol]
solubility in water [1]: insoluble in water
can be kept in the original packaging ([2]; stored at 5° C.): up to 24 months
can be kept in the original packaging ([2]; stored at room temperature): ≤ 12 months
